Test results: patent publication US20200376003A1, “PHARMACEUTICAL COMPOSITION FOR PREVENTING OR TREATING CHOLESTEROL GALLSTONE COMPRISING URSODEOXYCHOLIC ACID (UDCA) AND OMEGA-3 FATTY ACID, AND PROCESS FOR PRODUCING THE SAME” (INDUSTRY-ACADEMIC COOPERATION FOUNDATION, YONSEI UNIVERSITY, priority 2019, published 2020)
Entries after “also recorded” stand apart in the source; their conditions may differ.

System: mice with gallstones formed due to a high-cholesterol diet
Assay: Treatment of cholesterol gallstones in mice with gallstones formed by a high-cholesterol (lithogenic) diet, 12 weeks of drug administration
Assay type: in vivo, C57BL/6J male mice
Procedure: An overall schematic diagram of the animal experiment is as illustrated in FIG. 1. This will be described below in more detail. C57BL/6J male mice were purchased from Central Lab. Animal Inc. The mice were allowed to have a 4-week compliance period under a condition of controlled light (a cycle of 12-hour light and 12-hour darkness in which darkness is from 6:30 pm to 6:30 am), temperature (22±4° C.), and humidity (50%±20%). The mice had ad libitum access to water (autoclaved distilled water) and were fed commercial feed (Scientific Animal Food & Engineering/+40RMM) containing 2.9% fat, 15.2% protein, and 60.7% carbohydrate. In addition, a lithogenic diet (DYET #102136; Dyets, Inc., Bethlehem, Pa., USA) containing cholesterol (10 g/kg) and cholic acid (5 g/kg) was given for 8 weeks, so that mice with gallstones formed due to a high-cholesterol diet were created.
The mice with gallstones formed due to a high-cholesterol diet were divided into the following groups and experiments were conducted for 12 weeks:
Each of the mice of the control group (1) was administered, using a sonde, 0.3 ml of a mixture of 0.75% Tween 80 and distilled water. The mice of the groups (2) to (4) were administered, using a sonde, a product obtained by diluting 12.5 mg/kg/day of UDCA and 51 mg/kg/day of omega-3 fatty acid in 0.75% Tween 80. […]
After 12 weeks of drug administration, animals were sacrificed and gallbladder tissue was obtained. […] After the high-cholesterol diet, body weight and liver weight were measured; and after the normal diet and therapeutic agent administration, body weight and liver weight were measured (FIG. 2). […]
The size of gall stones in the gallbladder tissue obtained in Example 1 was analyzed on the basis of FIG. 4 (FIGS. 5 and 6). […]
Changes in the weight of liver gallstones after the high-cholesterol diet (base) and after the therapeutic agent administration were analyzed (FIGS. 7 and 8).

[1] = Example 2, anatomical changes before and after 12 weeks of drug administration, normal diet

Structure (SMILES): C[C@H](CCC(=O)O)[C@H]1CC[C@H]2[C@@H]3[C@@H](O)C[C@@H]4C[C@H](O)CC[C@]4(C)[C@H]3CC[C@]12C [UDCA, 3α,7β-dihydroxy-5β-cholanoic acid]
- amount of gallstones after administration (FIG. 3) [1]: insignificantly decreased
- size of gallstones after administration (FIG. 3) [1]: slightly decreased; also recorded: insignificant changes
- size of gallstones, analysed on the classification chart of FIG. 4 (FIGS. 5 and 6) (Example 3, after high-cholesterol diet vs after therapeutic agent administration): no change in size
